Measured values published in patent EP0908457B1, “3-(1,2-benzisothiazol- and isoxazol-5-Y1)-2,4(1H,3H)-pyrimidinedione or thione and 3-(1,2-benzisothiazol- and isoxazol-5-y1)-4(3H)-pyrimidinone or thione herbicidal agents” (BASF AKTIENGESELLSCHAFT, priority 1997, dated 1999).

What was measured:
[1] = tested on: Echinochloa oryzoides (Ard.) Fritsch.; assay: Preemergence weed control under flooded paddy conditions, ECHORC (Watergrass (Calif.)); format: in vivo; conditions: preemergence, flooded paddy, rated three to four weeks after treatment
[2] = tested on: Cyperus serotinus, Rottb.; assay: Preemergence weed control under flooded paddy conditions, CYPSE (Flatsedge); format: in vivo; conditions: preemergence, rated three to four weeks after treatment
Cyperus iria = assay: Preemergence weed control under flooded paddy conditions, CYPIR (Rice Flatsedge); format: in vivo; conditions: preemergence, flooded paddy, rated three to four weeks after treatment
[3] = tested on: Monochoria vaginalis, Presl.; assay: Preemergence weed control under flooded paddy conditions, MOOVA (Monochoria); format: in vivo; conditions: preemergence, flooded paddy, rated three to four weeks after treatment
Sagittaria pygmaea, L. = assay: Preemergence weed control under flooded paddy conditions, SAGPY (Arrowhead (Pygmaea)); format: in vivo; conditions: preemergence, flooded paddy, rated three to four weeks after treatment
[4] = tested on: Oryza sativa, (L.) Tebonnet; assay: Rice tolerance to post-transplant applications under flooded paddy conditions (Example 187), ORYSAT (Rice, Tebonnet); conditions: rated three to four weeks after treatment

Compound | ECHORC herbicidal effect rating ([1]; Rate 0.0313 kg/ha) | ECHORC herbicidal effect rating ([1]; Rate 0.0625 kg/ha) | ECHORC herbicidal effect rating ([1]; Rate 0.1250 kg/ha) | CYPSE herbicidal effect rating ([2]; Rate 0.0313 kg/ha) | CYPSE herbicidal effect rating ([2]; Rate 0.0625 kg/ha) | CYPSE herbicidal effect rating ([2]; Rate 0.1250 kg/ha) | CYPIR herbicidal effect rating (Cyperus iria; Rate 0.0313 kg/ha) | CYPIR herbicidal effect rating (Cyperus iria; Rate 0.0625 kg/ha) | CYPIR herbicidal effect rating (Cyperus iria; Rate 0.1250 kg/ha) | MOOVA herbicidal effect rating ([3]; Rate 0.0313 kg/ha) | MOOVA herbicidal effect rating ([3]; Rate 0.0625 kg/ha) | MOOVA herbicidal effect rating ([3]; Rate 0.1250 kg/ha) | SAGPY herbicidal effect rating (Sagittaria pygmaea, L.; Rate 0.0313 kg/ha) | SAGPY herbicidal effect rating (Sagittaria pygmaea, L.; Rate 0.0625 kg/ha) | SAGPY herbicidal effect rating (Sagittaria pygmaea, L.; Rate 0.1250 kg/ha) | ORYSAT herbicidal effect rating ([4]; Rate 0.0313 kg/ha) | ORYSAT herbicidal effect rating ([4]; Rate 0.0625 kg/ha) | ORYSAT herbicidal effect rating ([4]; Rate 0.1250 kg/ha) | ECHORC herbicidal effect rating ([1]; Rate 0.2500 kg/ha) | CYPSE herbicidal effect rating ([2]; Rate 0.2500 kg/ha) | also measured
Cn1c(C(F)(F)F)cc(=O)n(-c2ccc3snc(COC4C=CCCC4)c3c2)c1=O (centres unmarked) [Example 209, 3-{3-[(2-Cyclohexen-1-yloxy)methyl]-1,2-benzisothiazol-5-yl}-1-methyl-6-(trifluoromethyl)-2,4(1H,3H)-pyrimidinedione] | 1.0 | 2.0 | 2.0 | 0.0 | 0.0 | 0.0 | 2.0 | 4.0 | 8.0 | 0.0 | 0.0 | 0.0 | 0.0 | 0.0 | 0.0 | 3.0 | 3.0 | 4.0 | – | – | –
CC(C)=CCOCc1nsc2ccc(-n3c(=O)cc(C(F)(F)F)n(C)c3=O)cc12 [Example 210, 1-Methyl-3-{3-[(3-methyl-2-butenyloxy)methyl]-1,2-benzisothiazol-5-yl}-6-(trifluoromethyl)-2,4(1H,3H)-pyrimidinedione] | 9.0 | 9.0 | 9.0 | 0.0 | 0.0 | 0.0 | 2.0 | 7.0 | – | 9.0 | 9.0 | 9.0 | 0.0 | 0.0 | 0.0 | 3.0 | 4.0 | 6.0 | 9.0 | 0.0 | CYPIR herbicidal effect rating (Cyperus iria; Rate 0.2500 kg/ha): 7.0; MOOVA herbicidal effect rating ([3]; Rate 0.2500 kg/ha): 9.0; SAGPY herbicidal effect rating (Sagittaria pygmaea, L.; Rate 0.2500 kg/ha): 0.0; ORYSAT herbicidal effect rating ([4]; Rate 0.2500 kg/ha): 7.0
C=C(C)C1CC=C(COCc2nsc3ccc(-n4c(=O)ccn(C)c4=O)cc23)CC1 (centres unmarked) [Example 211, 1-Methyl-3-{3-{{[4-(1-methylvinyl)-1-cyclohexen-1-yl]methoxy}methyl}-1,2-benzisothiazol-5-yl}-2,4(1H,3H)-pyrimidinedione] | 2.0 | 4.0 | 7.0 | 0.0 | 0.0 | 0.0 | 0.0 | 0.0 | 4.0 | 9.0 | 9.0 | 9.0 | 0.0 | 0.0 | 0.0 | 2.0 | 2.0 | 2.0 | 9.0 | 0.0 | CYPIR herbicidal effect rating (Cyperus iria; Rate 0.2500 kg/ha): 4.0; MOOVA herbicidal effect rating ([3]; Rate 0.2500 kg/ha): 9.0; SAGPY herbicidal effect rating (Sagittaria pygmaea, L.; Rate 0.2500 kg/ha): 0.0; ORYSAT herbicidal effect rating ([4]; Rate 0.2500 kg/ha): 3.0
